Results as given in ChEMBL document CHEMBL2321716, “Exploring a new frontier in cancer treatment: targeting the ubiquitin and ubiquitin-like activating enzymes” (J Med Chem, 2013).
pIC50: −log10 of the molar value.

What was measured:
[1] = target: T1, SUMO-activating enzyme subunit 1 (Homo sapiens, UniProt Q9UBE0); assay: Inhibition of recombinant His-tagged SAE1(unknown origin)-mediated SUMOylation of RanGAP1-C2 by immunoblotting analysis
T1 sequence (Q9UBE0 whole entry): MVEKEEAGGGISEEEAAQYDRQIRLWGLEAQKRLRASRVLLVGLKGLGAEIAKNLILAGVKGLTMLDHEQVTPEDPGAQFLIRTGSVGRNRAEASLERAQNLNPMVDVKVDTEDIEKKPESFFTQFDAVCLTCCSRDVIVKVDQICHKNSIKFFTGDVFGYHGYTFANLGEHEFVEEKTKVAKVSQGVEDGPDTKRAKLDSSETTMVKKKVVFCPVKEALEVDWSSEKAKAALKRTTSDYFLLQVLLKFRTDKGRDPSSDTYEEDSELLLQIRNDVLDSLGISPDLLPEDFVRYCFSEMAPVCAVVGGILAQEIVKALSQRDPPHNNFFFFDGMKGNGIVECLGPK

[2] = Inhibition of recombinant yeast UAE-catalyzed UAE-Ub intermediate formation after 15 mins by densitometric analysis; set-up: species or system Saccharomyces cerevisiae
[3] = system: MCF7; assay: Cytotoxicity against human MCF7 cells after 48 hrs by WST8 assay; type: functional, cell-based; details: MCF7, 48 h
[4] = Inhibition of N-terminal GST-tagged human UAE-catalyzed [32P]-AMP:[a-32P]-ATP exchange expressed in HI5 insect cells by TLC analysis
[5] = Inhibition of N-terminal GST-tagged human UAE-catalyzed UAE-Ub thioester intermediate formation expressed in HI5 insect cells after 5 mins by SDS-PAGE analysis
[6] = target: T1, SUMO-activating enzyme subunit 1; assay: Inhibition of recombinant SAE1(unknown origin)-mediated SUMOylation of RanGAP1-C2
[7] = Inhibition of UAE (unknown origin) in presence of ATP; set-up: species or system Homo sapiens
[8] = target: T2, Ubiquitin-like modifier-activating enzyme 7 (Homo sapiens, UniProt P41226); assay: Inhibition of UBA7 (unknown origin) in presence of ATP
T2 sequence (P41226 whole entry): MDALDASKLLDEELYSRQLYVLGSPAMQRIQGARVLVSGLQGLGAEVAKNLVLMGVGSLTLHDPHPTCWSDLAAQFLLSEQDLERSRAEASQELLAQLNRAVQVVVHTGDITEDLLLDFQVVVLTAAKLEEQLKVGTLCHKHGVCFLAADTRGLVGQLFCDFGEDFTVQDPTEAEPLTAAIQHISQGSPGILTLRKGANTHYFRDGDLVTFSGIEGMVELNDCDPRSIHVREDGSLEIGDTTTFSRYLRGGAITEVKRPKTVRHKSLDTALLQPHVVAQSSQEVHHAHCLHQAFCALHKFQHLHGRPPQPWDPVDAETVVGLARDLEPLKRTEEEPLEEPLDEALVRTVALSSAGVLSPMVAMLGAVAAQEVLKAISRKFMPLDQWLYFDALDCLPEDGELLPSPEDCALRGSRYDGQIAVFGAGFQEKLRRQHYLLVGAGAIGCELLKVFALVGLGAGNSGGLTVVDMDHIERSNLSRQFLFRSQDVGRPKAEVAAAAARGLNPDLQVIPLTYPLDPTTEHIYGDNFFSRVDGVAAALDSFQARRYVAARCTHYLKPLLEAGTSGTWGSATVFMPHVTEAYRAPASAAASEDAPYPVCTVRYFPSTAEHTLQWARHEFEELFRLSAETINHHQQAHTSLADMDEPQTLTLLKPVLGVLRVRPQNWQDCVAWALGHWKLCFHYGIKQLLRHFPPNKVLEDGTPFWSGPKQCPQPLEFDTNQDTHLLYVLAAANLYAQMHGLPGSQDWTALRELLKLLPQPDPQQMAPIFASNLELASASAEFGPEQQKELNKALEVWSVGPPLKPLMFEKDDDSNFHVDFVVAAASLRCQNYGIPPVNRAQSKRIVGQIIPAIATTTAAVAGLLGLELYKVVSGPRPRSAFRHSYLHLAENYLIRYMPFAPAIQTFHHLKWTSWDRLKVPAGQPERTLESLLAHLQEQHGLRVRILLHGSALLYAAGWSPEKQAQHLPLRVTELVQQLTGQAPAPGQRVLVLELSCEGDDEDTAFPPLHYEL

[9] = Competitive inhibition of human UAE-catalyzed ATP-PPi exchange reaction expressed in Sf9 insect cells after 60 mins in presence of 1 mM ATP
[10] = target: T3, Ubiquitin-like modifier-activating enzyme ATG7 (Homo sapiens, UniProt O95352); assay: Inhibition of ATG7 (unknown origin) in presence of ATP
T3 sequence (O95352 whole entry): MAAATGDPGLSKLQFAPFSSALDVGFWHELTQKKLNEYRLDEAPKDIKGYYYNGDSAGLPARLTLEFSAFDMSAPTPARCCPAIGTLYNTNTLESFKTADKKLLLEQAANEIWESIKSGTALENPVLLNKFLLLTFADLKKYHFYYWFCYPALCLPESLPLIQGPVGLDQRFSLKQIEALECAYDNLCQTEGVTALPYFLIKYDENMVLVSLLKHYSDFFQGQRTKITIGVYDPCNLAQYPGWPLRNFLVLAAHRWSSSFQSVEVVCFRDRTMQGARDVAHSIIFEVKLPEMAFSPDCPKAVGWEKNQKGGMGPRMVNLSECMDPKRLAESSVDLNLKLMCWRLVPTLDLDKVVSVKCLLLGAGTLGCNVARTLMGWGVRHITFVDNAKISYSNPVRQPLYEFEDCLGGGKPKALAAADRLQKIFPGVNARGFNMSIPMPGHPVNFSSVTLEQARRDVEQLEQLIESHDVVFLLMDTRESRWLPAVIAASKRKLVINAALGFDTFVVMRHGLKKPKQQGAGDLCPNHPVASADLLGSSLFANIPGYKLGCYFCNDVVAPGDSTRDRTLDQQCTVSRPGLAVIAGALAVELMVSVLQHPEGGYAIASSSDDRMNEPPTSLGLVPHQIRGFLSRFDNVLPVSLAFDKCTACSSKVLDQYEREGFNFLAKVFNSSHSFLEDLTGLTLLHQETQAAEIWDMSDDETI

[11] = Competitive inhibition of human UAE-catalyzed ATP-PPi exchange reaction expressed in Sf9 insect cells after 60 mins in presence of 10 uM ATP
[12] = target: T4, Ubiquitin-like modifier-activating enzyme 6 (Homo sapiens, UniProt A0AVT1); assay: Inhibition of UBA6 (unknown origin) in presence of ATP
T4 sequence (A0AVT1 whole entry): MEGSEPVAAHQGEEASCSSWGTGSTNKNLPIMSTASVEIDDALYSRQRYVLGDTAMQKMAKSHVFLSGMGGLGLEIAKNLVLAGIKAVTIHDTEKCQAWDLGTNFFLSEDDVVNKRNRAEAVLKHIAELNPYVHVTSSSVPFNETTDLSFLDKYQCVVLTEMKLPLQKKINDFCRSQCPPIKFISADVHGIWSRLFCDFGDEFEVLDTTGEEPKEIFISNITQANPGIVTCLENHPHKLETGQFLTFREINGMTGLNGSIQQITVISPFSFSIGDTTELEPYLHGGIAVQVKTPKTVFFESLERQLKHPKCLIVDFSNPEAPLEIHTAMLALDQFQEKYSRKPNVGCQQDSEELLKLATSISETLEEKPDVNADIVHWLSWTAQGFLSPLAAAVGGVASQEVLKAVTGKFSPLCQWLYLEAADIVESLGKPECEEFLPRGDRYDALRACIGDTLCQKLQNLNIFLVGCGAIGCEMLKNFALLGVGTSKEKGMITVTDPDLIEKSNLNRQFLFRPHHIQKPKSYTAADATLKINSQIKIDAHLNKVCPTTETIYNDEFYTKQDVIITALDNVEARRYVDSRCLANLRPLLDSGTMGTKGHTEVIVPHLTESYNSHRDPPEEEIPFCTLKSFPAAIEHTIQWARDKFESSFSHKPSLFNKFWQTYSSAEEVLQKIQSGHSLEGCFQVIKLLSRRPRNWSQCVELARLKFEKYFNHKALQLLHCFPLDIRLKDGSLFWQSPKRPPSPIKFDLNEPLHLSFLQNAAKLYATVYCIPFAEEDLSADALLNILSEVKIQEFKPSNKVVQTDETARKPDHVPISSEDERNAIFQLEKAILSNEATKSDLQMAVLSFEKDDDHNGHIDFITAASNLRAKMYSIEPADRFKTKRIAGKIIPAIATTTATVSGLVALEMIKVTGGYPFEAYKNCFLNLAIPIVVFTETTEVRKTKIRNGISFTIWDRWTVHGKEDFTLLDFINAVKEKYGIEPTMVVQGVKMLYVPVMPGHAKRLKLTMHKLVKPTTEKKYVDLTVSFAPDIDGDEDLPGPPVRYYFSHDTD

[13] = target: T1, SUMO-activating enzyme subunit 1; assay: Inhibition of SAE (unknown origin) in presence of ATP
[14] = Inhibition of human UAE-catalyzed E1-E2 transthiolation reaction expressed in Sf9 insect cells after 90 mins by TR-FRET assay
[15] = Inhibition of N-terminal GST-tagged human UAE-catalyzed UAE-Ub thioester intermediate formation expressed in HI5 insect cells after 15 mins by SDS-PAGE analysis
[16] = target: T1, SUMO-activating enzyme subunit 1; assay: Inhibition of human SAE by fluorescence assay
[17] = Inhibition of FLAG-tagged human recombinant UAE-catalyzed UAE-Ub thioester intermediate formation immunoblotting analysis
[18] = target: T5, NEDD8-activating enzyme E1 catalytic subunit (Homo sapiens, UniProt Q8TBC4); assay: Inhibition of NAE (unknown origin)-catalyzed transthiolation of NEDD8 from NAE to Ubc12
T5 sequence (Q8TBC4 whole entry): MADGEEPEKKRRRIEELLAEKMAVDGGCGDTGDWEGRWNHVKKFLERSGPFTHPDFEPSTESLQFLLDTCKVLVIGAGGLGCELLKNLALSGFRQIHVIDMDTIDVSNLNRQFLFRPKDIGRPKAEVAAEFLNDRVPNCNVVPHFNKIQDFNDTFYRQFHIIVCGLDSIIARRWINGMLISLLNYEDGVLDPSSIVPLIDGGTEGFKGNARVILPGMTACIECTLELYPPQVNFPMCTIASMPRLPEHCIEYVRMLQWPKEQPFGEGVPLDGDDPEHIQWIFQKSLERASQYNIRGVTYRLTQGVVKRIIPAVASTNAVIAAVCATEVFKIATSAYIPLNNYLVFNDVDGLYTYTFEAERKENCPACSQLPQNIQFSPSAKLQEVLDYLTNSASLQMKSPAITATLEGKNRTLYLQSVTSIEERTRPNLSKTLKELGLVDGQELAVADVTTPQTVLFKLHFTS

[19] = target: T6, NEDD8-activating enzyme E1 regulatory subunit (Homo sapiens, UniProt Q13564); assay: Inhibition of NAE (unknown origin) assessed as decrease in NEDD8-Ubcl2 formation
T6 sequence (Q13564 whole entry): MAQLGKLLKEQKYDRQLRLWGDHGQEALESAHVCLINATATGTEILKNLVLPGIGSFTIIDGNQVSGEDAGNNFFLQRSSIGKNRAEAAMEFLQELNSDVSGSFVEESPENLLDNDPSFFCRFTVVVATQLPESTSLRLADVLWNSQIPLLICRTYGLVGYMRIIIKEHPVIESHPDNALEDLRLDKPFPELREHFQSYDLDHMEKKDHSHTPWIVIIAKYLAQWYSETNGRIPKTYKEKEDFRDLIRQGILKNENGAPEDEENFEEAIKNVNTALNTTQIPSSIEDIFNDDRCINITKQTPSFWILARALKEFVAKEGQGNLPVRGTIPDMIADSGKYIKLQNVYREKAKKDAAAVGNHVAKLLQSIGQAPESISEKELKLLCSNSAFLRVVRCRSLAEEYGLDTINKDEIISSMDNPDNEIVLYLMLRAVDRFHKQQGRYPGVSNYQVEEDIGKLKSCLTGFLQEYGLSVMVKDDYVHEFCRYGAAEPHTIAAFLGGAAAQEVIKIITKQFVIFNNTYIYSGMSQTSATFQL

[20] = system: Caco-2; assay: Cytotoxicity against human Caco2 cells by MTT assay; type: functional, cell-based
[21] = target: T5, NEDD8-activating enzyme E1 catalytic subunit; assay: Inhibition of NAE (unknown origin)-catalyzed NEDD8-Ubcl2 intermediate formation by densitometric analysis
[22] = Inhibition of UAE-catalyzed UAE-Ub thioester intermediate formation in human RPE cells by immunoblotting analysis; type: cell-based

C[C@@H]1O[C@@H](O[C@H]2[C@H](O)C[C@H](c3ccc4c(c3O)C(=O)C3=C(C4=O)[C@@]4(O[C@H]5CC[C@H](O)[C@H](C)O5)C(=O)C[C@](C)(O)C[C@@]4(O)C=C3)O[C@@H]2C)CC[C@@H]1O[C@H]1C[C@@H](O)[C@H](O)[C@@H](C)O1 [KERRIAMYCIN B]
pIC50 [1]: 4.93

CCCCCCCC/C=C/[C@]12C(=O)[C@H]3O[C@H]3[C@H](O)[C@H]1[C@H]1C(=C[C@@H]2CCCCCCCC)C(=O)[C@H]2O[C@H]2[C@@H]1O
pIC50 [2]: 4.05 | pIC50 [3]: 5.44

CCCCCCCCCCNCCSSCc1ccc(Cl)cc1
pIC50 [4]: 4.89 | pIC50 [5]: 5.05

CCCCCC/C=C\CCCCCCCc1cccc(O)c1C(=O)O [GINGKOLIC ACID]
pIC50 [6]: 5.52

CCCCCCCCCCCCCCCc1cccc(O)c1C(=O)O [ANACARDIC ACID]
pIC50 [6]: 5.66

CCCC/C=C/[C@]12C(=O)[C@H]3O[C@H]3[C@H](O)[C@H]1[C@H]1C(=C[C@@H]2CCCC)C(=O)[C@H]2O[C@H]2[C@@H]1O
pIC50 [2]: 5.46 | pIC50 [3]: 6.00

NS(=O)(=O)OC[C@H]1O[C@@H](n2cnc3c(N[C@H]4CCc5ccccc54)ncnc32)[C@H](O)[C@@H]1O
pIC50 [7]: 5.28 | pIC50 [8]: 5.40 | pIC50 [9]: 5.30 | pIC50 [10]: < 4.00 | pIC50 [11]: 7.99 | pIC50 [12]: 6.04 | pIC50 [13]: 5.19 | pIC50 [14]: 8.85

CCCCCCCC(=O)SCC/C=C/[C@@H]1CC(=O)NCc2nc(cs2)C2=N[C@@](C)(CS2)C(=O)N[C@@H](C(C)C)C(=O)O1 [LARGAZOLE]
pIC50 [15]: 4.54 | pIC50 [16]: 3.35

C[C@@H](CC(=O)NC(=O)c1coc(/C=C/CCCCCCCCC(=O)O)cc1=O)C(=O)O [HIMEIC ACID A]
pIC50 [17]: 4.30

O=c1cc(-c2ccc(O)cc2)oc2cc(O)c(-c3c(O)cc4oc(-c5ccc(O)cc5)cc(=O)c4c3O)c(O)c12
pIC50 [18]: 4.70 | pIC50 [19]: 5.30

O=C(O)CNC(=O)CNC(=O)COc1ccc2nc3n(c(=O)c2c1)CCC3
pIC50 [20]: 5.00 | pIC50 [21]: 6.10

CCOC(=O)N1CCN(/[N+]([O-])=N/Oc2ccc([N+](=O)[O-])cc2[N+](=O)[O-])CC1
pIC50 [22]: 5.70

C/C=C/[C@]12C(=O)[C@H]3O[C@H]3[C@H](O)[C@H]1[C@H]1C(=C[C@@H]2C)C(=O)[C@H]2O[C@H]2[C@@H]1O
pIC50 [2]: 5.03 | pIC50 [3]: 5.27
